Several values for one entry are separate records, joined by “and”; a condition that tells them apart may be missing. Equal entries are not always repeated.
Experiments:
[1] = target: crude AD brain extracts (tau seeds) in HEK293T tau biosensor cells (Homo sapiens, UniProt P10636); assay: Tau biosensor cell seeding assay, screen with crude AD brain extracts; format: cell-based; conditions: for Number of seeded aggregates in tau biosensor cells (normalized to confluence), Fig. 2e: 10 μM inhibitor on cells, seeds pre-incubated 16–18 h at 4 °C, individual replicates (n=3), DMSO control 10734.9/12808.5/11145.3; for Inhibition of seeding in biosensor cells: 10 μM screen
Excerpt: From the in silico screen, compounds were ranked and 46 were selected for further experimental validation based on the total binding energy of the ligand/fibril complex. The experimental assessment consisted of direct measures of fibril disassembly (Fig. 2d, e and Supplementary Table 3) and assessment of the seeding capability of the products of disassembled AD tau fibrils in a biosensor cell assay. Disaggregating molecules that produce active seeds are undesirable for therapy and are excluded from further study. HEK293T cells expressing CFP- or YFP-fused tau are transduced with exogenous AD tau fibrils. Externally applied AD-tau fibrils then induce the aggregation of the endogenous fluorescent tau, resulting in the formation of FRET-positive intracellular aggregates, visible as bright puncta by fluorescence microscopy (Fig. 2f). Automated image analysis of visible puncta provides an objective quantification of seeded aggregation. […] Although biosensors may be limited in reporting structural characteristics of fibril progeny, they offer exquisitely sensitive measures of tau seeding activity—the ability for fibrils to recruit monomeric protein into fibrillar form, which is thought to be the mechanism for tau spreading in AD.
Human autopsy samples were obtained by the Mayo Clinic Brain Bank and UCLA Pathology Department according to HHS regulations from patients consenting to autopsy. Samples were provided to the researchers of this study as anonymized tissues. For purification of paired helical filaments (PHFs) and straight filaments (SFs) from AD brain tissue, extractions were performed according to the previously published protocol without any modifications. […] For biosensor seeding assays with crude AD brain extracts, fresh-frozen tissue from neuropathologically confirmed AD cases was thawed and cut into a 0.2–0.3 g sections. Tissue was manually homogenized in a 15 ml disposable tube in 1 ml of 50 mM Tris, pH 7.4 with 150 mM NaCl, and then aliquoted to PCR tubes and sonicated in a cuphorn bath for 120 min under 30% power at 4 °C in a recirculating ice water bath, according to reference.
HEK293T cell lines stably expressing tau-K18 P301S-eYFP were obtained from Marc Diamond[25] and used without further characterization or authentication. […] Inhibitors were dissolved in DMSO. […] After twenty minutes, 10 µl of fibrils were added to 90 µl of tau biosensor cells. The number of seeded aggregates was determined by imaging the entire well of a 96-well plate in triplicate using a Celigo Image Cytometer (Nexcelom) in the YFP channel. The number of aggregates in a given image was determined using an ImageJ 2.3.0[50] script, which subtracts the background fluorescence from unseeded cells, and then counts the number of aggregates as peaks with fluorescence above the background using the built-in Particle Analyzer. The number of aggregates was normalized to the confluence of each well, and dose-response plots were generated by calculating the average and standard deviations from triplicate measurements.

[2] = test system: biosensor cells (HEK293T); assay: Toxicity to biosensor cells under seeding assay conditions; format: cell-based; conditions: under the assayed conditions (10 μM screen)
Procedure: HEK293T cell lines stably expressing tau-K18 P301S-eYFP were obtained from Marc Diamond[25] and used without further characterization or authentication. Cells were maintained in DMEM (Life Technologies, cat. 11965092) supplemented with 10% (vol/vol) FBS (Life Technologies, cat. A3160401), 1% penicillin/streptomycin (Life Technologies, cat. 15140122), and 1% Glutamax (Life Technologies, cat. 35050061) at 37 °C, 5% CO2 in a humidified incubator. […] Inhibitors were dissolved in DMSO. For seeding, inhibitor-treated seeds were sonicated in a cuphorn water bath for 3 min, and then mixed with 1 volume of […] (Life Technologies, cat. 11668027) prepared by diluting 1 µl of Lipofectamine in 19 µl of OptiMEM. After twenty minutes, 10 µl of fibrils were added to 90 µl of tau biosensor cells. The number of seeded aggregates was determined by imaging the entire well of a 96-well plate in triplicate using a Celigo Image Cytometer (Nexcelom) in the YFP channel. The number of aggregates in a given image was determined using an ImageJ 2.3.0[50] script, which subtracts the background fluorescence from unseeded cells, and then counts the number of aggregates as peaks with fluorescence above the background using the built-in Particle Analyzer. […]

[3] = target: T1, AD brain-derived tau fibrils (Homo sapiens, UniProt P10636); assay: Negative stain EM and quantitative EM (qEM) of tau fibrils after compound treatment; format: biochemical
Procedure: Negatively stained EM Grids were prepared by depositing 6 µl of sample on formvar/carbon-coated copper grids (400 mesh) for 3 min. The sample was rapidly wicked using filter paper without drying the grid and stained with 1% uranyl acetate for 2 min. […] Fibrils were counted from collections of 33 micrographs (in triplicate) for each experimental condition.

AD-tau PHF = AD-tau PHF (Homo sapiens, UniProt P10636); assay: CryoEM occupancy analysis of EGCG density; format: binding; conditions: for Occupancy of density at Site 1 relative to fibril backbone / Occupancy of density at Site 2 relative to fibril backbone / Occupancy of density at Site 3 relative to fibril backbone: map low-pass filtered to 7 Å
[4] = target: T1, AD brain-derived tau fibrils; assay: Western blot of insoluble tau after compound treatment; format: biochemical; conditions: 72 h at 37 °C
Procedure: Proteins were transferred from gel to nitrocellulose membrane using an iBLOT2 system. The membrane was blocked for 1 h in TBST with 5% milk and washed with TBST three times. The membrane was then incubated with primary antibody (anti-tau A0024 (Dako), 1:4000 dilution in 2% milk/TBST solution) for 1 h, washed three times with TBST, incubated with horseradish peroxidase-conjugated secondary antibody (goat anti-mouse IgG H and L (HRP); 1:5000 Dilution in 2% milk/TBST), and washed three times in TBST.

Neuro2a cells = assay: MTT cytotoxicity assay; format: cell-based
Procedure: (§1) In all, 90 µL of Neuro2a cells were plated on clear 96 well plates (Falcon 353072) at 6000 cells per well and given 24 h to adhere to the plate. Subsequent treatment consisted of PHF samples that were co-incubated with or without 100 µM of small molecules for 48 h at 37 °C, with 10 µl applied per well for a final small molecule concentration of 10 µM. After another 24-h incubation at 37 °C, 20 µl of Thiazolyl Blue Tetrazolium Bromide MTT dye (Sigma; 5 mg/ml stock in DPBS) was added to each well and further incubated for 3.5 h at 37 °C. The assay was arrested by replacement of all media with 100% DMSO and transferred to a SpectraMax MF reader. Background 700 nm readings were subtracted from the absorbance readings at 570 nm. Cells treated with 100% DMSO were designated as 0% viable and those treated only with vehicle were designated as 100% viable. Other well readings were normalized to these values.

MTT cytotoxicity assay = format: cell-based; conditions: mouse, Neuro2a cells, Neuro2a; final small molecule concentration 10 µM; 24 h; vehicle = 100% viable; individual replicates; read-out: MTT cell viability, compound alone, Fig. 3f
Procedure: as §1

Brain-derived tau PHFs = Brain-derived tau PHFs (Homo sapiens, UniProt P10636); assay: Dot blot analysis of EGCG time course (GT38, AT8); format: biochemical; conditions: for GT38 dot blot signal (AD tau aggregates), Supp. Fig. 1 / AT8 dot blot signal (total hyperphosphorylated tau), Supp. Fig. 1: replicates
Procedure: Samples were spotted onto nitrocellulose membrane, 20 µl were spotted for each condition, spotting 2 µl at a time and allowing to dry in between. The membrane was blocked for 1 h in TBST with 5% milk and washed with TBST three times. The membrane was then incubated with primary antibody (either anti-tau GT38 (obtained from Virginia Lee lab at UPenn) or anti-phospho-tau AT8 (cat # MN1020, lot # UL2906281Z), 1:4000 dilution in 2% milk/TBST solution) for 1 h, washed three times with TBST, incubated with horseradish peroxidase-conjugated secondary antibody (goat anti-mouse IgG H and L (HRP); 1:5000 Dilution in 2% milk/TBST), and washed three times in TBST. Signal was detected with Pierce ECL Plus Western Blotting Substrate (cat # 32132), and the blot was imaged with a Pharos FX Plus Molecular Imager.

AD-tau PHF, sequence (P10636 623-697 limits assumed): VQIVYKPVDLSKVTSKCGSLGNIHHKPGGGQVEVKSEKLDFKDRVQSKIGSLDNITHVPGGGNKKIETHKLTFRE
T1 sequence (P10636 623-695 limits assumed): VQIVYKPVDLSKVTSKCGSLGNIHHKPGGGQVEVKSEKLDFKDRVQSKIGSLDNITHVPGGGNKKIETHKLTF
crude AD brain extracts (tau seeds) in HEK293T tau biosensor cells, sequence (P10636 623-695 limits assumed): as above
Brain-derived tau PHFs, sequence (P10636 623-695 limits assumed): as above

Compound: Oc1cccc(-c2c3nc(c(-c4cccc(O)c4)c4ccc([nH]4)c(-c4cccc(O)c4)c4nc(c(-c5cccc(O)c5)c5ccc2[nH]5)CC4)C=C3)c1 [FDA-A4, Temoporfin]
- Number of seeded aggregates in tau biosensor cells (normalized to confluence), Fig. 2e [1]: 356.976 and 1174.27 and 1749.15
- Inhibition of seeding in biosensor cells [1]: effective inhibitor
- Toxicity to biosensor cells [2]: toxic to biosensor cells

Compound: O=C(O[C@@H]1Cc2c(O)cc(O)cc2O[C@@H]1c1cc(O)c(O)c(O)c1)c1cc(O)c(O)c(O)c1 [EGCG, Epigallocatechin gallate]
- Electron microscopy of tau fibrils treated with compound (qualitative) ([3]; negative stain EM): nearly gone after 24 h of incubation
- Quantitation of fibril number on EM images (qEM), Fig. 3c ([3]; relative scale, fibrils alone about 1, individual replicates of 33 micrographs): 0 and 0.009982
- Number of seeded aggregates in tau biosensor cells (normalized to confluence), Fig. 2e ([1]; listed as EGCG-PBS): 1.145 and 4.487 and 178.587
- Inhibition of seeding in biosensor cells [1]: prevents the formation of any seeds
- Occupancy of density at Site 1 relative to fibril backbone (AD-tau PHF; 1-hour EGCG): 43%
- Occupancy of density at Site 2 relative to fibril backbone (AD-tau PHF; 1-hour EGCG): 44%
- Occupancy of density at Site 3 relative to fibril backbone (AD-tau PHF; 1-hour EGCG): 54%
- Occupancy of EGCG at Site 1 (AD-tau PHF; 3-h structure): 66%
- Occupancy of density at Site 1 relative to fibril backbone (AD-tau PHF; 3 hr. EGCG): 67%
- Occupancy of density at Site 2 relative to fibril backbone (AD-tau PHF; 3 hr. EGCG): 56%
- Occupancy of density at Site 3 relative to fibril backbone (AD-tau PHF; 3 hr. EGCG): 62%
- Reduction of insoluble tau by Western blot [4]: substantially reduce the amount of insoluble tau
- Neuronal cytotoxicity of compound (Neuro2a cells; Neuro 2a (N2a) cells, MTT): no significant cytotoxicity
- MTT cell viability, compound alone, Fig. 3f (Neuro2a cells; Neuro2a, final small molecule concentration 10 µM, 24 h, vehicle = 100% viable, individual replicates, 10 µM): 108.947% and 94.1622%
- viability at 24 h, 10 µM (MTT cytotoxicity assay): 102%
- Time at which reduction in aggregate level begins (GT38 dot blot) (Brain-derived tau PHFs; 37 °C): 1 to 3 h
- GT38 dot blot signal (AD tau aggregates), Supp. Fig. 1 (Brain-derived tau PHFs; EGCG incubation 1 h at 37 °C, relative to 0 h): 0.7905 and 0.6952 and 0.7857
- AT8 dot blot signal (total hyperphosphorylated tau), Supp. Fig. 1 (Brain-derived tau PHFs; EGCG incubation 1 h at 37 °C): 0.7495 and 1.415 and 0.8474
- AT8 dot blot signal (total hyperphosphorylated tau), Supp. Fig. 1 (Brain-derived tau PHFs; EGCG incubation 3 h at 37 °C): 1.189 and 1.169 and 0.7844
- GT38 dot blot signal (AD tau aggregates), Supp. Fig. 1 (Brain-derived tau PHFs; EGCG incubation 3 h at 37 °C): 0.6381 and 0.5905 and 0.6857
- AT8 dot blot signal (total hyperphosphorylated tau), Supp. Fig. 1 (Brain-derived tau PHFs; EGCG incubation 6 h at 37 °C): 1.107 and 1.408 and 0.8471
- GT38 dot blot signal (AD tau aggregates), Supp. Fig. 1 (Brain-derived tau PHFs; EGCG incubation 6 h at 37 °C): 0.3571 and 0.3381 and 0.6238
- AT8 dot blot signal (total hyperphosphorylated tau), Supp. Fig. 1 (Brain-derived tau PHFs; EGCG incubation 24 h at 37 °C): 1.122 and 1.203 and 1.059
- GT38 dot blot signal (AD tau aggregates), Supp. Fig. 1 (Brain-derived tau PHFs; EGCG incubation 24 h at 37 °C): 0.2286 and 0.2714 and 0.4143

From article PMC9481533, “Structure-based discovery of small molecules that disaggregate Alzheimer’s disease tissue derived tau fibrils in vitro” (Nature Communications, 2022)
